According to PubChem BioAssay (NCI):
“And” between values parts separate entries of the source, which are not always exact repeats. Equal values may be shown once.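 A five-concentration, 48-hour dose response in 96-well plates underlies each endpoint, interpolated linearly between surrounding concentrations. The concentration for 50% growth inhibition is given as GI50. Definition used: TGI = concentration required for complete inhibition of growth.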

Key:
Assay in all cases: inhibition of tumour cell growth, NCI panel, 48 h
[1] = test system: SK-OV-3 ovarian
[2] = test system: MDA-MB-435
[3] = test system: A498 renal
[4] = test system: RXF 393 renal
[5] = test system: K-562 leukemia
[6] = test system: UO-31 renal
[7] = test system: NCI-H522 lung
[8] = test system: CAKI-1 renal

SMILES	TGI [1]	TGI [2]	TGI [3]	TGI [4]	TGI [5]	TGI [6]	TGI [7]	GI50 [1]	GI50 [2]	GI50 [3]	GI50 [8]	TGI [8]	GI50 [4]	GI50 [6]	GI50 [7]	GI50 [5]
O=C(O)CC(Cc1ccc2c(c1)OCO2)C(=O)O (stereo unspecified)	> 100 µM	> 100 µM	> 100 µM	> 100 µM	> 100 µM	> 100 µM	> 100 µM									
COc1cc2c(/C=C3/C(=O)Nc4ccccc43)c(Cl)n(Cc3ccccc3)c2cc1C	> 100 µM	> 100 µM	> 100 µM	> 100 µM		> 100 µM	> 100 µM	> 100 µM	64.4 µM	> 100 µM	> 100 µM	> 100 µM	> 100 µM	83.4 µM	> 100 µM	
O=c1cc/c(=N\Nc2ccccc2)c(=O)/c1=N/Nc1ccccc1	> 50 µM	> 50 µM	> 50 µM	> 50 µM	> 50 µM	> 50 µM		> 50 µM	> 50 µM	> 50 µM	> 50 µM	> 50 µM	> 50 µM	> 50 µM		> 50 µM
c1ccc(-c2nc(Nc3ccc(-c4nc5ccccc5[nH]4)cc3)nc(N3CCOCC3)n2)cc1	4.23 µM	3.28 µM	2.62 µM	2.12 µM	0.959 µM	2.91 µM	3.92 µM	2.11 µM	1.76 µM	1.09 µM	1.28 µM	2.54 µM	0.501 µM	1.32 µM	2.1 µM	0.295 µM
COc1cc(C)cc2c1OC(c1ccccc1)CC2=O (stereo unspecified)	> 100 µM	> 100 µM	> 100 µM	> 100 µM	> 100 µM	> 100 µM		> 100 µM	> 100 µM	> 100 µM	> 100 µM	> 100 µM	> 100 µM	> 100 µM		> 100 µM
COc1ccc(C2=NNC(c3ccc(-c4ccc(OC)cc4[N+](=O)[O-])o3)C2)cc1 (stereo unspecified)	> 100 µM	91.3 µM	> 100 µM	54.1 µM	> 100 µM	> 100 µM	> 100 µM	49.7 µM	25.3 µM	31.6 µM			20.3 µM	> 100 µM	34.9 µM	36.4 µM
[N-]=[N+]=Nc1ncc(-c2ccc(C(F)(F)F)cc2)c(NC2CCCCCC2)n1	> 10 µM	> 10 µM	> 10 µM	> 10 µM	> 10 µM	> 10 µM		> 10 µM	> 10 µM	> 10 µM	> 10 µM	> 10 µM	> 10 µM	> 10 µM		> 10 µM
CCCCCCn1c(-c2ccc(C(=O)O/N=C(\N)c3ccc(OC)cc3)cc2)nc(-c2ccccc2)c1-c1ccccc1	> 100 µM	3.2 µM		3.17 µM		1.48 µM	3.72 µM	4.45 µM	1.66 µM		0.997 µM	2.19 µM	1.62 µM	0.413 µM	1.74 µM	
C[C@]12CC[C@H]3[C@@H](CC=C4C[C@@H](O)CC[C@@]43C)[C@@H]1C/C(=C\c1cccc(OCCN3CCOCC3)c1)[C@@H]2O	> 100 µM	> 100 µM	> 100 µM		40.8 µM	> 100 µM	> 100 µM	> 100 µM	85.1 µM	> 100 µM	> 100 µM	> 100 µM		33.5 µM	> 100 µM	11.6 µM
OCCNc1nc(NCCO)nc(Nc2ccc(C3=NN(c4cc(Cl)cc(Cl)c4)C(c4ccc(Cl)cc4)C3)cc2)n1 (stereo unspecified)	5.15 µM	3.11 µM	3.57 µM	2.91 µM	3.74 µM	3.16 µM	4.66 µM	2.31 µM	1.65 µM	1.73 µM			1.44 µM	1.63 µM	2.03 µM	1.73 µM
N#Cc1nc(-c2cccc(Br)c2)cc(-c2ccc(Nc3nc(N4CCCCC4)nc(N4CCCCC4)n3)cc2)c1N	> 100 µM	6.64 µM		2.99 µM	> 100 µM	5.47 µM	4.72 µM	19.1 µM	2.35 µM		1.93 µM	5.03 µM	1.34 µM	1.68 µM	1.78 µM	2.07 µM
CC1(C)CCSC(/C=C/c2ccccc2)=N1	> 100 µM	32.6 µM	36.4 µM	47.7 µM	> 100 µM		39.8 µM					32.3 µM				
COc1ccc(Cl)cc1N1C(=O)C(Cl)=C(Nc2cccc(O)c2)C1=O	> 100 µM	62.8 µM		29 µM	46.2 µM	26.6 µM	20.1 µM	34.2 µM	24.6 µM		19.2 µM	55.2 µM	7.36 µM	13.2 µM	6.48 µM	18.5 µM
CCCCCCC(C)CC(CCCCCC)NCCOC(=O)c1ccc([N+](=O)[O-])cc1 (stereo unspecified)	31.8 µM and 30.4 µM	24.9 µM and 20.1 µM	34 µM and 34.8 µM		1.84 µM	23.8 µM and 22.2 µM	28.4 µM and 26.2 µM		11.6 µM and 5.17 µM		12.2 µM and 4.21 µM	25.3 µM and 18.4 µM				
COc1ccc2c(c1)[nH]c(=O)c1c3cccnc3cn21	> 52 µM		4.53 µM	0.055 µM	19.8 µM	14.6 µM	0.0682 µM	0.0464 µM		0.0335 µM	0.0405 µM	14.7 µM	0.0195 µM	0.0797 µM	0.0222 µM	0.0271 µM
CCOC(=O)c1cc2c(cc1Cl)SC(N(c1ccc(F)cc1)S(=O)(=O)c1ccc(OC)cc1)=NS2(=O)=O	> 100 µM	44.7 µM	45.9 µM		31.1 µM	42.2 µM	29.9 µM	24.3 µM	14.8 µM	23 µM	20.2 µM	48.7 µM		17.9 µM	13.5 µM	14.2 µM
CC1CCC2(OC1)OC1CC3C4CC=C5CC(OC6OC(CO)C(OC7OC(C)C(OC8OC(C)C(O)C(O)C8O)C(O)C7O)C(O)C6OC6OC(C)C(O)C(O)C6O)CCC5(C)C4CCC3(C)C1C2C (stereo unspecified)	2.31 µM	1.18 µM	1.55 µM	2.05 µM		1.67 µM	2.17 µM					2.55 µM				
Cc1cccc(C(C)O)n1 (stereo unspecified)	> 100 µM		> 100 µM		> 100 µM	> 100 µM	> 100 µM					> 100 µM				
COc1ccc(/C=C/C(=O)c2ccc(Nc3ncnc4ccccc34)cc2)cc1OC	35.5 µM	> 100 µM	> 100 µM	9.96 µM		68.3 µM	33.5 µM	4.23 µM	2.93 µM	8.97 µM	16.8 µM	> 100 µM	2.2 µM	4.57 µM	7.45 µM	
O=C(CNC(=O)c1cccc2ccccc12)Nc1ccccc1Oc1cccc(O)c1	> 25 µM	3.07 µM	> 25 µM	15.4 µM	> 25 µM	> 25 µM	> 25 µM	13 µM	0.755 µM	5.11 µM			4.12 µM	16.5 µM	1.62 µM	1.05 µM
OCCN(CO)CN(CN(CO)CCO)c1nc(N(CN(CO)CCO)CN(CO)CCO)nc(N(CN(CO)CCO)CN(CO)CCO)n1	4.21 ng/mL				10.6 ng/mL			1.26 ng/mL								0.559 ng/mL
COC(=O)Nc1ccc2ccc3c(NC(=O)OC)ccc4ccc1c2c43 (tested in a mixture with another compound)	> 50 µM		> 50 µM	20.5 µM	> 50 µM	18.3 µM	> 50 µM	11.6 µM		8.26 µM	6.44 µM	27.4 µM	7.3 µM	5.21 µM	11 µM	3.29 µM
CCCCCC(=O)N1c2ccccc2NC2=C(C(=O)CC(c3ccc(OC)c(OC)c3)C2)C1c1ccc(C(F)(F)F)cc1 (stereo unspecified)	> 100 µM	> 100 µM		> 100 µM	> 100 µM	> 100 µM	> 100 µM	> 100 µM	50.7 µM		35.6 µM	> 100 µM	37.6 µM	42.5 µM	70.8 µM	> 100 µM
CC1C(=O)N=C2C(=CN(Cc3ccccc3)c3ccccc32)C(=O)N1C (stereo unspecified)		> 100 µM	> 100 µM	> 100 µM	> 100 µM	> 100 µM	> 100 µM					> 100 µM				
CCOC(=O)C1CCC/C1=N\N=C(N)N (stereo unspecified) (tested in a mixture with another compound)	> 100 µM	> 100 µM	> 100 µM	> 100 µM	> 100 µM	> 100 µM	> 100 µM									
Cc1sc2ncnc(Sc3nc4ccccc4[nH]3)c2c1C	65.6 µM	> 100 µM	52.9 µM		97.3 µM	96.7 µM	61.2 µM	24.3 µM	26.3 µM	12.2 µM	25.4 µM	> 100 µM		14.7 µM	21.5 µM	23.4 µM
